What was measured:
Assay type in all cases: biochemical
VEGFR2 = target: T1, VEGFR2 (Homo sapiens, UniProt P35968); assay: Z'-LYTE in vitro enzyme activity assay, VEGFR2; settings: 100 μM ATP, 60 minutes, room temperature; read-out: IC50 detected by Z'-LYTE, VEGFR2
T1 construct: purchased Life technology
Experimental: (§1) The enzyme activity was measured by Z′-LYTE™ Detection Kinase Assay. The IC50 value of the compounds was used as an index to evaluate the inhibitory effect of the compounds on VEGFR2, FGFR1 and PDGFRB.
(§2) Recombinant human VEGFR2 and FGFR1 proteases were purchased from Life technology, PDGFRB Protease was purchased from Millipore.
(§3) Z-LYTE™ Kit Tyr1 and Tyr4 were purchased from Life technology. Multi-microplate reader, Envision (PerkinElmer) read board was used.
(§4) The test compounds were diluted 3 times with a concentration gradient, the final concentration was from 10 μM to 0.17 nM with a total of 11 concentrations, and each concentration had two parallel holes; the content of DMSO in the assay was 1%.
3 nM VEGFR2 protein kinase, 2 μM Tyr1 peptide, 100 μM ATP, 50 mM HEPES (pH 7.5), 10 mM MgCl2, 1 mM EGTA, 0.01% BRIJ-35. The detector plate was Black Proxiplate 384-Plus plate (PerkinElmer), the reaction was performed at room temperature for 60 minutes, and the reaction system was 10 μl.
(§5) The reaction was stopped by adding 5 μl of DV reagent B (1:128) to the kinase reaction solution and incubated at 23° C. for 60 minutes. The Envision instrument was used to read the plate.
(§6) The data was converted to phosphorylation rate and inhibition rate and the 4 parameter curve fitting (Model 205 in XLFIT5, iDBS) was used to get IC50 data of the compounds.

PDGFRB = target: T2, PDGFRB (Homo sapiens, UniProt P09619); assay: Z'-LYTE in vitro enzyme activity assay, PDGFRB; settings: 100 μM ATP, 60 minutes, room temperature; read-out: IC50 detected by Z'-LYTE, PDGFRB
T2 construct: purchased Millipore
T2 sequence (P09619 33-1106): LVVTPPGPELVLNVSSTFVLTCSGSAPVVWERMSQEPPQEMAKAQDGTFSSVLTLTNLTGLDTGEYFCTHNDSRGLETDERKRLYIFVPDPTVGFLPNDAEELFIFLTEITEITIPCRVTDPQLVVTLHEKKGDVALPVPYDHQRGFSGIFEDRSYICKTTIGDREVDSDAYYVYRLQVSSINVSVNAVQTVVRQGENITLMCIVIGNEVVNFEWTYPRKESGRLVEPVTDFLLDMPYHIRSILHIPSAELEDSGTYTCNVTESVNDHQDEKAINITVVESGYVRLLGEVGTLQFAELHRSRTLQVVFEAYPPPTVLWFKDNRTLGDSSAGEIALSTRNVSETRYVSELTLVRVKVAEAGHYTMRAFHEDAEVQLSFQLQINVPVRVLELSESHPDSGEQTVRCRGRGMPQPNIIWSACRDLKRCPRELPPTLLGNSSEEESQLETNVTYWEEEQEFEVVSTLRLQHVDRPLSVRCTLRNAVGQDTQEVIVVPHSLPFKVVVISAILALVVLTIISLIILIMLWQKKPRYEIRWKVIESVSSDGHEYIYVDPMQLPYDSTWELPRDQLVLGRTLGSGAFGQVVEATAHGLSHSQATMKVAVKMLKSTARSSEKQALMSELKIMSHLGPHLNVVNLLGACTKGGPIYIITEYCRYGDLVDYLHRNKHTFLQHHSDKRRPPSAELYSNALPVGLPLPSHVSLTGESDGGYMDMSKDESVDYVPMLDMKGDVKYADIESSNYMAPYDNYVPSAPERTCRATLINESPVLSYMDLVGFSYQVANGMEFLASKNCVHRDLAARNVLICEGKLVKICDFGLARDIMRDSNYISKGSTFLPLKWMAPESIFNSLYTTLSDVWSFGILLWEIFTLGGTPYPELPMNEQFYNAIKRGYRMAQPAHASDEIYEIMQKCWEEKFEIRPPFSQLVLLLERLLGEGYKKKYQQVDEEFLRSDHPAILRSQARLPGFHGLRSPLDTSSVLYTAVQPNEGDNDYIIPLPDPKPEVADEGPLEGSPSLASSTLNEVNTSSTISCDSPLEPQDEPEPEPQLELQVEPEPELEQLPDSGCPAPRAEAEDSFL
Experimental: as §1, §2, §3, §4
(§7) 40 nM PDGFRB protein kinase, 2 μM Tyr4 peptide, 100 μM ATP, 50 mM HEPES (pH 7.5), 10 mM MgCl2, 1 mM EGTA, 0.01% BRIJ-35, 2 mM MnCl2, 1 mM DTT. The detector plate was Black Proxiplate 384-Plus plate (PerkinElmer), the reaction was performed at room temperature for 60 minutes, and the reaction system was 10 μl.
as §5, §6

FGFR1 = target: T3, FGFR1 (Homo sapiens, UniProt P11362); assay: Z'-LYTE in vitro enzyme activity assay, FGFR1; settings: 25 μM ATP, 60 minutes, room temperature; read-out: IC50 detected by Z'-LYTE, FGFR1
T3 construct: purchased Life technology
T3 sequence (P11362 22-822): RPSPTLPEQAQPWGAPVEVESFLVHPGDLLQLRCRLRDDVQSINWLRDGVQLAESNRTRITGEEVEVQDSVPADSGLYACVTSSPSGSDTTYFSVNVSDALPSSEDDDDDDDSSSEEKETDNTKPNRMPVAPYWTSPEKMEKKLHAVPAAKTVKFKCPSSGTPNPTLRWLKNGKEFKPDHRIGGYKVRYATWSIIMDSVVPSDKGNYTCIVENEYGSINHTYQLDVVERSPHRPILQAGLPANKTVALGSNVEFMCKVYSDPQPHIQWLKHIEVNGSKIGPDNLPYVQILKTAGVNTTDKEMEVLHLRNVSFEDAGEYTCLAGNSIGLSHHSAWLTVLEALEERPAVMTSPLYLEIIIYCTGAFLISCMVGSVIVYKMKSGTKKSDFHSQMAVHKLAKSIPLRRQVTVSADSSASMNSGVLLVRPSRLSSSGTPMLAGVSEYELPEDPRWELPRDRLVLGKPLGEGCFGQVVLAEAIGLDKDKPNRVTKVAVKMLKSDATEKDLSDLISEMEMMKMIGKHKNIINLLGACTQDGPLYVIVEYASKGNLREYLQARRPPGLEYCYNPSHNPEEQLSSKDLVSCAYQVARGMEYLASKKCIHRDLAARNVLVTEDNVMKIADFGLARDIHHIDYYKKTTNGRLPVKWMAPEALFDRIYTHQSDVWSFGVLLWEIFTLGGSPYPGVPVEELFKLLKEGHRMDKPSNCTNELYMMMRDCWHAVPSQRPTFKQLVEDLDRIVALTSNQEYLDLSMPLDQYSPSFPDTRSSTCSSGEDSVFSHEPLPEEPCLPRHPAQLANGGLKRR
Experimental: as §1, §2, §3, §4
as §7, with “1” for “40”, “FGFR1” for “PDGFRB”, “25” for “100”
as §5, §6

T1 sequence (P35968 20-1356): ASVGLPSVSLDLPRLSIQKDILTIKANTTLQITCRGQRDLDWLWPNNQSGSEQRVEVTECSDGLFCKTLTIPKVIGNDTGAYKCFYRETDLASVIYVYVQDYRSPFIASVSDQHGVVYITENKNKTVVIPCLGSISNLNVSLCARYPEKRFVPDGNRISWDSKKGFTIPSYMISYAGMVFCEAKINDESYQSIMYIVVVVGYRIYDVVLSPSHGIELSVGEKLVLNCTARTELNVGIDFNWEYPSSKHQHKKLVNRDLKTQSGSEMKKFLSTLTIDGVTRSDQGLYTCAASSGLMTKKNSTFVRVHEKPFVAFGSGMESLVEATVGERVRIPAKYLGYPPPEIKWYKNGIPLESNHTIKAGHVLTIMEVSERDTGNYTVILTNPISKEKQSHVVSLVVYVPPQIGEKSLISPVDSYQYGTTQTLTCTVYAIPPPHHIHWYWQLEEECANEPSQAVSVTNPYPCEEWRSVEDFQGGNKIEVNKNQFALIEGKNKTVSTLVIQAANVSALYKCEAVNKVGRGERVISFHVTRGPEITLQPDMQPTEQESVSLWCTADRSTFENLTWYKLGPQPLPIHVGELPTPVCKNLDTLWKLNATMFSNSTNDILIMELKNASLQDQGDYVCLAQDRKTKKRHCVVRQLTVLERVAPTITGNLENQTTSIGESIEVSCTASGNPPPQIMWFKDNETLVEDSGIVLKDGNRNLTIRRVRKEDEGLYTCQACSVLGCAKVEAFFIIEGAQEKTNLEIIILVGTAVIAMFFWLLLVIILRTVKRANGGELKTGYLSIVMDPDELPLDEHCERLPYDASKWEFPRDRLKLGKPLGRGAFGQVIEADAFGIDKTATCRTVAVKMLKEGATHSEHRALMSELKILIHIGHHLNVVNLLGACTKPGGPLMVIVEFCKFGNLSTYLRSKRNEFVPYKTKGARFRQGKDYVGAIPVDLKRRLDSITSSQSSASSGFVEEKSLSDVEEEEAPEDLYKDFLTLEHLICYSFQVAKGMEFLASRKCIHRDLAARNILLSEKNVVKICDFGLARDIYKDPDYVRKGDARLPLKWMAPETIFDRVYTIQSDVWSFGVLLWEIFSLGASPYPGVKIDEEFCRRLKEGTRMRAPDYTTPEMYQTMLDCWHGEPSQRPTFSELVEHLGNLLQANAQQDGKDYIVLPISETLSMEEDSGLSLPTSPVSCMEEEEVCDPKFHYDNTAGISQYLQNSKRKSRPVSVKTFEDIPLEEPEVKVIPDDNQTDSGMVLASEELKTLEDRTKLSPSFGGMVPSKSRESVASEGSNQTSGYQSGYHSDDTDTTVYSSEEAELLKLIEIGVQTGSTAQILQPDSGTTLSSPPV

Compound	IC50 (VEGFR2)	IC50 (PDGFRB)	IC50 (FGFR1)
COc1cc2nccc(Oc3ccc(NC(=S)N4CCCC4)c(Cl)c3)c2cc1NC(C)=O [Example 181]	200 to 1000 nM	200 to 1000 nM	200 to 1000 nM
COc1cc2nccc(Oc3ccc(NC(=S)NC4CC4)c(Cl)c3)c2cc1C(=O)NC1CC1 [Example 54]	50 to 200 nM	200 to 1000 nM	200 to 1000 nM
CCC1NC(=O)c2cc3c(Oc4ccc(NC(=S)NC5CC5)c(Cl)c4)ccnc3cc2O1 (stereo not drawn) [Example 173]	200 to 1000 nM	200 to 1000 nM	200 to 1000 nM
COc1cc2nccc(Oc3ccc(Nc4c(NC5CCOCC5)c(=O)c4=O)c(Cl)c3)c2cc1C(N)=O [Example 139]	200 to 1000 nM	200 to 1000 nM	200 to 1000 nM
COc1cc2nccc(Oc3ccc(Nc4c(NCc5ccc(Cl)cc5)c(=O)c4=O)c(Cl)c3)c2cc1C(N)=O [Example 151]	200 to 1000 nM	< 50 nM	200 to 1000 nM
[2H]C([2H])([2H])NC(=O)c1coc2cc(Oc3ccnc4cc(OC)c(C(N)=O)cc34)c(Cl)cc12 [Example 211]	50 to 200 nM	< 50 nM	200 to 1000 nM
COc1cc2nccc(Oc3ccc(NC(=S)N4CC[C@@H](O)C4)c(Cl)c3F)c2cc1C(N)=O [Example 111]	50 to 200 nM	200 to 1000 nM	50 to 200 nM
COC(=O)c1cc2c(Oc3ccc(NC(=S)N4CC(F)(F)C4)c(Cl)c3)ccnc2cc1OC [Example 178]	200 to 1000 nM	200 to 1000 nM	200 to 1000 nM
CC1(C)NC(=O)c2cc3c(Oc4ccc(NC(=S)NC5CC5)c(Cl)c4)ccnc3cc2O1 [Example 172]	200 to 1000 nM	200 to 1000 nM	200 to 1000 nM
COc1cc2ncc(Cl)c(Oc3ccc(NC(=S)NC4CC4)c(Cl)c3)c2cc1C(N)=O [Example 84]	200 to 1000 nM	200 to 1000 nM	200 to 1000 nM
COc1cc2nccc(Oc3ccc(Nc4c(NCc5ccccn5)c(=O)c4=O)c(Cl)c3)c2cc1C(N)=O [Example 150]	200 to 1000 nM	< 50 nM	200 to 1000 nM
COc1cc2nccc(Oc3ccc(NC(=S)NC4CC4)c(Cl)c3)c2cc1C(=O)N1CC(F)(F)C1 [Example 53]	200 to 1000 nM	50 to 200 nM	200 to 1000 nM
COc1cc2nccc(Oc3cc(Cl)c4c(C(=O)N5CCCC5)coc4c3)c2cc1C(N)=O [Example 194]	200 to 1000 nM	200 to 1000 nM	200 to 1000 nM
COc1cc2nccc(Oc3cc(Cl)c(NC(=S)NC4CC4)cc3F)c2cc1C(N)=O [Example 77]	< 50 nM	50 to 200 nM	200 to 1000 nM
CCN(CC)CCOc1cc2nccc(Oc3ccc(NC(=S)NC4CC4)c(Cl)c3)c2cc1C(N)=O [Example 31]	200 to 1000 nM	200 to 1000 nM	200 to 1000 nM
COc1cc2nccc(Oc3ccc(NC(=S)NC4CC4)c(Cl)c3)c2cc1C(C)(C)O [Example 175]	200 to 1000 nM	200 to 1000 nM	200 to 1000 nM
Cc1nc(-c2ccc3c(Oc4ccc(NC(=O)NC5CC5)c(Cl)c4F)ccnc3c2)cn1C [Example 229]	< 50 nM	< 50 nM	< 50 nM
COc1cc2nccc(Oc3ccc(NC(=O)N4CC[C@H](F)C4)c(Cl)c3F)c2cc1C(N)=O [Example 117]	50 to 200 nM	50 to 200 nM	200 to 1000 nM
COc1ccc2c(Oc3ccc(NC(=S)N4CC(F)(F)C4)c(Cl)c3)ccnc2c1 [Example 171]	200 to 1000 nM	200 to 1000 nM	200 to 1000 nM
COc1cc2nccc(Oc3ccc(NC(=S)N4CC(F)(F)C4)c(Cl)c3)c2cc1C(F)(F)F [Example 184]	200 to 1000 nM	200 to 1000 nM	200 to 1000 nM

More lines, now with the values ahead:

IC50 (VEGFR2)	IC50 (PDGFRB)	IC50 (FGFR1)	Compound
< 50 nM	200 to 1000 nM	200 to 1000 nM	COc1cc2nccc(Oc3ccc4c(C(=O)NC5CC5)c[nH]c4c3)c2cc1C(N)=O [Example 186]
200 to 1000 nM	200 to 1000 nM	200 to 1000 nM	COc1cc2nccc(Oc3ccc(NC(=S)N4CC(C)(O)C4)c(Cl)c3)c2cc1C(N)=O [Example 85]
50 to 200 nM	200 to 1000 nM	200 to 1000 nM	COc1cc2nccc(Oc3ccc4c(c3)CCCN4C(=S)NC3CC3)c2cc1C(N)=O [Example 26]
200 to 1000 nM	200 to 1000 nM	200 to 1000 nM	COc1cc2nccc(Oc3ccc(NC(=S)Nc4ccc(Cl)c(F)c4)c(Cl)c3)c2cc1C(N)=O [Example 3]
50 to 200 nM	50 to 200 nM	200 to 1000 nM	C#CCNC(=S)Nc1ccc(Oc2ccnc3cc(OC)c(C(N)=O)cc23)cc1Cl [Example 92]
200 to 1000 nM	50 to 200 nM	200 to 1000 nM	COc1cc2nccc(Oc3ccc(NC(=S)N4CC(F)(F)C4)cc3F)c2cc1C(N)=O [Example 101]
< 50 nM	50 to 200 nM	200 to 1000 nM	COc1cc2nccc(Oc3ccc(NC(=S)NC(C)C)c(Cl)c3)c2cc1C(N)=O [Example 52]
200 to 1000 nM	50 to 200 nM	200 to 1000 nM	COc1cc2nccc(Oc3ccc(NC(=O)NC(C)(C)C(F)(F)F)c(Cl)c3)c2cc1C(N)=O [Example 33]
200 to 1000 nM	50 to 200 nM	200 to 1000 nM	COc1cc2nccc(Oc3ccc(N4CC(=O)N(C)C4=S)c(Cl)c3)c2cc1C(N)=O [Example 82]
200 to 1000 nM	200 to 1000 nM	200 to 1000 nM	COc1cc2nccc(Oc3ccc4c(C(=O)N5CC[C@@H](O)C5)coc4c3)c2cc1C(N)=O [Example 201]
50 to 200 nM	50 to 200 nM	200 to 1000 nM	COc1cc2nccc(Oc3ccc(NC(=S)NC4CC(O)C4)c(Cl)c3)c2cc1C(N)=O (stereo not drawn) [Example 27]
50 to 200 nM	200 to 1000 nM	200 to 1000 nM	COc1cc2nccc(Oc3cc(F)c(NC(=S)N4CCCC4)c(F)c3)c2cc1C(N)=O [Example 91]
200 to 1000 nM	200 to 1000 nM	200 to 1000 nM	COc1cc2nccc(Oc3ccc4nc(NCC(F)F)sc4c3)c2cc1C(N)=O [Example 157]
50 to 200 nM	200 to 1000 nM	200 to 1000 nM	COc1cc2nccc(Oc3ccc(NC(=S)Nc4cccc(C(F)(F)F)c4)c(Cl)c3)c2cc1C(N)=O [Example 7]
50 to 200 nM	200 to 1000 nM	200 to 1000 nM	COc1cc2nccc(Oc3ccc(NC(=S)N4CCC(F)(F)C4)c(Cl)c3)c2cc1C(N)=O [Example 66]
200 to 1000 nM	200 to 1000 nM	200 to 1000 nM	COc1cc2nccc(Oc3ccc(NC(=S)NC4(C#N)CC4)c(Cl)c3)c2cc1C(N)=O [Example 75]
50 to 200 nM	< 50 nM	200 to 1000 nM	COc1cc2nccc(Oc3ccc(NC(=S)NCCCSC)c(Cl)c3)c2cc1C(N)=O [Example 63]
200 to 1000 nM	200 to 1000 nM	200 to 1000 nM	COc1cc2nccc(Oc3ccc(NC(=O)NC(C)C(F)(F)F)c(Cl)c3)c2cc1C(N)=O (stereo not drawn) [Example 36]
200 to 1000 nM	200 to 1000 nM	200 to 1000 nM	COc1cc2nccc(Oc3ccc4nc(NCc5cccc(C(F)(F)F)c5)sc4c3)c2cc1C(N)=O [Example 161]
50 to 200 nM	50 to 200 nM	200 to 1000 nM	COc1cc2nccc(Oc3ccc(NC(=S)NCCCO)c(Cl)c3)c2cc1C(N)=O [Example 29]
200 to 1000 nM	50 to 200 nM	200 to 1000 nM	COc1cc2nccc(Oc3ccc4c(C(=O)N5CC[C@H](O)C5)coc4c3)c2cc1C(N)=O [Example 203]
200 to 1000 nM	200 to 1000 nM	200 to 1000 nM	COc1cc2nccc(Oc3ccc4c(c3)CCN4C(=S)NC3CC3)c2cc1C(N)=O [Example 24]
200 to 1000 nM	200 to 1000 nM	200 to 1000 nM	COc1cc2nccc(Oc3ccc4[nH]cc(C#N)c4c3)c2cc1C(N)=O [Example 162]
200 to 1000 nM	200 to 1000 nM	200 to 1000 nM	COc1cc2nccc(Oc3ccc(Nc4c(NCC(C)C)c(=O)c4=O)c(Cl)c3)c2cc1C(N)=O [Example 144]
< 50 nM	200 to 1000 nM	200 to 1000 nM	COc1cc2nccc(Oc3ccc(NC(=S)NC4CC4)c(C(F)(F)F)c3)c2cc1C(N)=O [Example 41]
200 to 1000 nM	200 to 1000 nM	200 to 1000 nM	COc1cc2nccc(Oc3ccc(Nc4c(NCc5cccnc5)c(=O)c4=O)c(Cl)c3)c2cc1C(N)=O [Example 149]
